Consider 31 compounds from patent US20230278981A1, “DICHLOROPHENOL HSD17B13 INHIBITORS AND USES THEREOF” (INIPHARM, INC., priority 2020, published 2023).

Counter-ions that a name gives are not always drawn.

This test addresses HSD17B13 (Homo sapiens (Human), UniProt Q7Z5P4). The test can be described thus: LC/MS estrone detection assay: conversion of estradiol to estrone by HSD17B13. Format: biochemical. The settings on record: 4 μM estradiol, 6 mM NAD+, 30 nM HSD17B13 enzyme (E. coli expressed His-tagged), 2 hours at 26.5° C. Put shortly:
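His-tagged E. coli-expressed HSD17B13 (30 nM) with 4 μM estradiol and 6 mM NAD+ in 1 M potassium phosphate pH 7.4, 0.5% DMSO, 2 h at 26.5° C. Estrone and estradiol quantified by LC-MS/MS after MeCN quench with D4-estrone internal standard; activity as % of uninhibited enzyme, IC50 by four-parameter fit, duplicates.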

HSD17B13, sequence (Q7Z5P4 20-300): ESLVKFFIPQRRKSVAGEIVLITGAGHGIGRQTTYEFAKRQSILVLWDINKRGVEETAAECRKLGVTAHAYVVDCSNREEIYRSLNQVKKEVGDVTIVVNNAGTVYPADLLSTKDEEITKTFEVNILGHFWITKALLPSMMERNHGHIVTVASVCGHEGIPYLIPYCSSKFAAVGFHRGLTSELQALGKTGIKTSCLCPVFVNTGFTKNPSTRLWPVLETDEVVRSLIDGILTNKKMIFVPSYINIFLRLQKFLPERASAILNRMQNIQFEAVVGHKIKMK

In general, IC50 refers to the midpoint of a concentration-inhibition curve. With `Cc1ccc(NC(=O)c2cc(Cl)c(O)c(Cl)n2)c2c(=O)n(Cc3cccnc3C(F)(F)F)c(C)nc12` [Example 147, 4,6-dichloro-N-(2,8-dimethyl-4-oxo-3-((2-(trifluoromethyl)pyridin-3-yl)methyl)-3,4-dihydroquinazolin-5-yl)-5-hydroxypicolinamide], the IC50 lay in the range of 100 to 500 nM. Next, `Cc1ccc(NC(=O)c2cc(Cl)c(O)c(Cl)c2)c2c(=O)n(Cc3ccccc3OC(F)(F)F)c(CF)nc12` [Example 152, 3,5-dichloro-N-(2-(fluoromethyl)-8-methyl-4-oxo-3-(2-(trifluoromethoxy)benzyl)-3,4-dihydroquinazolin-5-yl)-4-hydroxybenzamide]: 500 to 1000 nM; `O=C(NCc1ccccc1OC(F)(F)F)C1CCCCN1C(=O)c1cc(Cl)c(O)c(Cl)n1` (stereo not shown) [Example 120, 1-(4,6-dichloro-5-hydroxypicolinoyl)-N-(2-(trifluoromethoxy)benzyl) piperidine-2-carboxamide]: 1000 to 10000 nM; `O=C(Nc1cccc2nc(C(F)(F)F)n(C3CC3c3ccccc3)c(=O)c12)c1cc(Cl)c(O)c(Cl)c1` (stereo not shown) [Example 116, 3,5-dichloro-4-hydroxy-N-(4-oxo-3-(2-phenylcyclopropyl)-2-(trifluoromethyl)-3,4-dihydroquinazolin-5-yl)benzamide]: 100 to 500 nM. Consider `Cc1nsc(NC(=O)c2cc(Cl)c(O)c(Cl)c2)c1C(=O)N[C@@H](C)c1ccccc1F` [Example 126, (S)-5-(3,5-dichloro-4-hydroxybenzamido)-N-(1-(2-fluorophenyl)ethyl)-3-methylisothiazole-4-carboxamide], for which the IC50 is not above 100 nM. The value for `O=C(NCc1ccccc1OC(F)(F)F)C1CCCN1C(=O)c1cc(Cl)c(O)c(Cl)c1` (stereo not shown) [Example 128, 1-(3,5-dichloro-4-hydroxybenzoyl)-N-(2-(trifluoromethoxy)benzyl) pyrrolidine-2-carboxamide] was more than 10000 nM; that for `O=C(Nc1cccc2ncn(Cc3ccccc3F)c(=O)c12)c1cc(Cl)c(O)c(Cl)n1` [Example 44, 4,6-dichloro-N-(3-(2-fluorobenzyl)-4-oxo-3,4-dihydroquinazolin-5-yl)-5-hydroxypicolinamide] was not above 100 nM. The value for `Cc1nc2c(Cl)ccc(NC(=O)c3cc(Cl)c(O)c(Cl)c3)c2c(=O)n1Cc1ncccc1C(F)(F)F` [Example 166, 3,5-dichloro-N-(8-chloro-2-methyl-4-oxo-3-((3-(trifluoromethyl)pyridin-2-yl)methyl)-3,4-dihydrjoquinazolin-5-yl)-4-hydroxybenzamide] was 100 to 500 nM.

`CS(=O)(=O)c1cccc(Cn2cnc3cccc(NC(=O)c4cc(Cl)c(O)c(Cl)c4)c3c2=O)c1` [Example 60, 3,5-dichloro-4-hydroxy-N-(3-(3-(methylsulfonyl)benzyl)-4-oxo-3,4-dihydroquinazolin-5-yl)benzamide.] registered an IC50 of 500 to 1000 nM.

In the case of `O=C(Nc1cccc2ncn([C@H]3C[C@@H]3c3ccccc3)c(=O)c12)c1cc(Cl)c(O)c(Cl)n1` [Example 109, 4,6-dichloro-5-hydroxy-N-(4-oxo-3-((1S,2R)-2-phenylcyclopropyl)-3,4-dihydroquinazolin-5-yl)picolinamide], the IC50 was in the range of 1000 to 10000 nM.

`O=C(Nc1cccc2ncn(Cc3cccnc3C(F)(F)F)c(=O)c12)c1cc(Cl)c(O)c(Cl)c1` [Example 82, 3,5-dichloro-4-hydroxy-N-(4-oxo-3-((2-(trifluoromethyl)pyridin-3-yl)methyl)-3,4-dihydroquinazolin-5-yl)benzamide] registered an IC50 not above 100 nM.

In turn, `O=C(Nc1cccc2ncn([C@@H]3C[C@H]3c3ccccc3)c(=O)c12)c1cc(Cl)c(O)c(Cl)n1` [Example 108, 4,6-dichloro-5-hydroxy-N-(4-oxo-3-((1R,2S)-2-phenylcyclopropyl)-3,4-dihydroquinazolin-5-yl)picolinamide TFA Salt] had an IC50 of 500 to 1000 nM.

In the case of `O=C(Nc1ccc(F)c2ncn(Cc3ccccc3OC(F)(F)F)c(=O)c12)c1cc(Cl)c(O)c(Cl)n1` [Example 133, 4,6-dichloro-N-(8-fluoro-4-oxo-3-{[2-(trifluoromethoxy)phenyl]methyl}-3,4-dihydroquinazolin-5-yl)-5-hydroxypyridine-2-carboxamide], the IC50 lay within 100 to 500 nM. The value for `C[C@@H](c1cccc(F)c1)n1cnc2cccc(NC(=O)c3cc(Cl)c(O)c(Cl)n3)c2c1=O` [Example 41, 4,6-dichloro-N-{3-[(1S)-1-(3-fluorophenyl)ethyl]-4-oxo-3,4-dihydroquinazolin-5-yl}-5-hydroxypyridine-2-carboxamide] was not above 100 nM; that for `O=C(Nc1cccc2ncn(Cc3ccccc3OC(F)(F)F)c(=O)c12)c1cc(Cl)c(O)c(Cl)c1` [Example 2, 3,5-dichloro-4-hydroxy-N-(4-oxo-3-(2-(trifluoromethoxy)benzyl)-3,4-dihydroquinazolin-5-yl)benzamide] was not above 100 nM; that for `O=C(Nc1cccc2ncn(C(c3ccccc3)c3ccccc3)c(=O)c12)c1cc(Cl)c(O)c(Cl)c1` [Example 78, N-(3-benzhydryl-4-oxo-3,4-dihydroquinazolin-5-yl)-3,5-dichloro-4-hydroxybenzamide] was not above 100 nM.

The compound `Cc1nc2c(F)ccc(NC(=O)c3cc(Cl)c(O)c(Cl)n3)c2c(=O)n1[C@H]1CC[C@@H]1c1ccccc1` [Example 207, 4,6-dichloro-N-(8-fluoro-2-methyl-4-oxo-3-((1S,2R)-2-phenylcyclobutyl)-3,4-dihydroquinazolin-5-yl)-5-hydroxypicolinamide] yielded an IC50 of 100 to 500 nM. Next, `Cc1nc2c(F)ccc(NC(=O)c3cc(Cl)c(O)c(Cl)c3)c2c(=O)n1Cc1nn(C)c2ccccc12` [Example 190, 3,5-dichloro-N-(8-fluoro-2-methyl-3-((1-methyl-1H-indazol-3-yl)methyl)-4-oxo-3,4-dihydroquinazolin-5-yl)-4-hydroxybenzamide]: not above 100 nM; `O=C(Nc1cccc2ncn(Cc3cocn3)c(=O)c12)c1cc(Cl)c(O)c(Cl)c1` [Example 15, 3,5-dichloro-4-hydroxy-N-(3-(oxazol-4-ylmethyl)-4-oxo-3,4-dihydroquinazolin-5-yl)benzamide]: 500 to 1000 nM; `O=C(Nc1cccc2ncn([C@@H]3CC[C@H]3c3ccccc3)c(=O)c12)c1cc(Cl)c(O)c(Cl)n1` (racemic) [Example 175, rac-4,6-dichloro-5-hydroxy-N-(4-oxo-3-((1R,2S)-2-phenylcyclobutyl)-3,4-dihydroquinazolin-5-yl)picolinamide]: 100 to 500 nM. Next, `COc1ccccc1Cn1cnc2cccc(NC(=O)c3cc(Cl)c(O)c(Cl)c3)c2c1=O` [Example 5, 3,5-dichloro-4-hydroxy-N-(3-(2-methoxybenzyl)-4-oxo-3,4-dihydroquinazolin-5-yl)benzamide]: 100 to 500 nM; `O=C(Nc1ncsc1C(=O)NCc1ccccc1OC(F)(F)F)c1cc(Cl)c(O)c(Cl)c1` [Example 27, 4-(3,5-dichloro-4-hydroxybenzamido)-N-(2-(trifluoromethoxy)benzyl)thiazole-5-carboxamide]: 100 to 500 nM; `O=C(Nc1scnc1C(=O)NCc1ccccc1OC(F)(F)F)c1cc(Cl)c(O)c(Cl)n1` [Example 191, 5-(4,6-dichloro-5-hydroxypicolinamido)-N-(2-(trifluoromethoxy)benzyl) thiazole-4-carboxamide]: not above 100 nM. The value for `CN(C)CCOc1ccc(NC(=O)c2cc(Cl)c(O)c(Cl)c2)c(C(=O)NCc2ccccc2OC(F)(F)F)c1` [Example 85, 3,5-dichloro-N-(4-(2-(dimethylamino)ethoxy)-2-((2-(trifluoromethoxy)benzyl)carbamoyl)phenyl)-4-hydroxybenzamide] was more than 10000 nM; that for `O=C(Nc1cccc2ncn(Cc3cccnc3OC(F)(F)F)c(=O)c12)c1cc(Cl)c(O)c(Cl)c1` [Example 87, 3,5-dichloro-4-hydroxy-N-(4-oxo-3-((2-(trifluoromethoxy)pyridin-3-yl)methyl)-3,4-dihydroquinazolin-5-yl)benzamide] was 100 to 500 nM; that for `O=C(Nc1sc(Cl)cc1C(=O)NCCc1ccccc1OC(F)(F)F)c1cc(Cl)c(O)c(Cl)c1` [Example 38, 5-chloro-2-(3,5-dichloro-4-hydroxybenzamido)-N-(2-(trifluoromethoxy)phenethyl) thiophene-3-carboxamide] was 100 to 500 nM.

For the compound `Cn1nc(Cn2cnc3cccc(NC(=O)c4cc(Cl)c(O)c(Cl)c4)c3c2=O)c2ccccc21` [Example 117, 3,5-dichloro-4-hydroxy-N-(3-((1-methyl-1H-indazol-3-yl)methyl)-4-oxo-3,4-dihydroquinazolin-5-yl)benzamide], the IC50 is not above 100 nM. The value for `Cc1nc2nccc(NC(=O)c3cc(Cl)c(O)c(Cl)c3)c2c(=O)n1Cc1ccccc1OC(F)(F)F` [Example 96, 3,5-dichloro-4-hydroxy-N-(2-methyl-4-oxo-3-(2-(trifluoromethoxy)benzyl)-3,4-dihydropyrido[2,3-d]pyrimidin-5-yl)benzamide] was not above 100 nM; that for `O=C(NCc1ccccc1OC(F)(F)F)C1CCCN1C(=O)c1cc(Cl)c(O)c(Cl)n1` (stereo not shown) [Example 127, 1-(4,6-dichloro-5-hydroxypicolinoyl)-N-(2-(trifluoromethoxy)benzyl) pyrrolidine-2-carboxamide] was more than 10000 nM. Next, `Cc1ccc(NC(=O)c2cc(Cl)c(O)c(Cl)n2)c2c(=O)n(Cc3ncccc3C(F)(F)F)c(C)nc12` [Example 153, 4,6-dichloro-N-(2,8-dimethyl-4-oxo-3-((3-(trifluoromethyl)pyridin-2-yl)methyl)-3,4-dihydroquinazolin-5-yl)-5-hydroxypicolinamide]: 100 to 500 nM; `Cn1ccc(Cn2cnc3cccc(NC(=O)c4cc(Cl)c(O)c(Cl)c4)c3c2=O)n1` [Example 56, 3,5-dichloro-4-hydroxy-N-{3-[(1-methyl-1H-pyrazol-3-yl)methyl]-4-oxo-3,4-dihydroquinazolin-5-yl}benzamide]: 500 to 1000 nM.
